This note sets out measurements from article PMC8760323, “Single-chain tandem macrocyclic peptides as a scaffold for growth factor and cytokine mimetics” (Communications Biology, 2022).

Test [1] concerns HuCCT1 cells. As to the kind of experiment: Branching morphogenesis in collagen gel. The class given is cell-based, human. Conditions: 7 days; 0.44 nM rhHGF or […] aMD4dY-PA22. The method, then:
HuCCT1 cells at a density of 20,000 cells/well were mixed with 400 μL of ice-cold collagen-containing culture medium (DMEM/Nutrient Mixture F-12, CellMatrix type IA [Nitta Gelatin Inc., Osaka, Japan], 2.2 g/L of sodium bicarbonate, 4.77 g/L of 4-(2-hydroxyethyl)-1-piperazineethanesulfonic acid [HEPES], and 0.005 N sodium hydroxide) and incubated in a 48-well cell culture plate in 5% CO2 at 37 °C for gelation. The cells encapsulated in the collagen gel were cultured with 500 μL of RPMI 1640 medium supplemented with 10% FBS with or without 0.44 nM HGF or 6.3 nM aMD4dY-PA22 in 5% CO2 at 37 °C. The culture medium was changed every 3 days. At day 7, the cells were observed by inverted microscopy.

In test [2] the test system is HuCCT1 cells. As to the kind of experiment: Scratch assay (wound healing). The class given is cell-based, human. Conditions: for wound healing compared with no stimulation: 0.41 nM rhHGF or 16 nM aMD4dY-PA22; for Closure rate / Wound closure: 1 to 7 h, 0.41 nM HGF or 16 nM aMD4dY-PA22. The method, then:
HuCCT1 cells at a density of 50,000 cells/well in RPMI 1640 medium supplemented with 10% FBS were added to a 96-well cell culture plate and incubated overnight in 5% CO2 at 37 °C to form cellular monolayers. The centers of the cellular monolayers were scratched with 1000 μL micropipette tips and incubated in RPMI 1640 medium supplemented with 0.5% FBS with or without 0.41 nM HGF or 16 nM aMD4dY-PA22 in 5% CO2 at 37 °C. Images of the cells were captured every hour using BioStudio-T (Nikon, Tokyo, Japan). The average wound healing rate was calculated as [(width of the wound 1 h after scratching) − (width of the wound […])]/6.

The subject of test [3] is Met. In words: Cell-based phospho-Met ELISA (HuCCT1 cells). Conditions: phospho-Met ELISA and Erk signaling reporter assay. On the set-up: species or system human. The method, then:
The phosphorylation level of Met was evaluated according to a previously reported method[6],[32], with slight modifications. In brief, HuCCT-1 cells at a density of 10,000 cells/well were seeded on 96-well cell culture plates and incubated overnight in 5% CO2 at 37 °C. The cells were stimulated by rhHGF, purified HGF mimetic STaMPtides, and monomeric aMD4dY for 10 min in a 5% CO2 incubator at 37 °C. Next, cells were fixed using 4% paraformaldehyde in phosphate-buffered saline (PBS) for 20 min. Cells were washed three times with PBS and blocked with 1% BSA and 0.02% Triton X-100 in PBS for 30 min at room temperature. Cells were incubated with 1:1000 diluted phospho-Met (Tyr1234/1235) (D26) XP Rabbit mAb (Cell Signaling Technology) supplemented with 1% BSA in PBS at 4 °C overnight. After washing three times with PBS, the cells were incubated with 1:1000 diluted […] HRP-linked IgG antibody (Cell Signaling Technology) supplemented with 1% BSA in PBS at room temperature for 3 h. Cells were washed four times with PBS and incubated with 100 μL TMB substrate for 30 min. The reaction was stopped with an equal volume of 0.2 N sulfuric acid, and absorbance was quantified at 450 nm by the Molecular Imager ChemiDoc XRS System (Bio-Rad).

The target of test [4] is T1, recombinant human Met ectodomain-Fc (Homo sapiens, UniProt P08581).
T1 construct: recombinant human Met ectodomain-Fc; purchased R&D Systems
T1 sequence (P08581 25-932 limits assumed): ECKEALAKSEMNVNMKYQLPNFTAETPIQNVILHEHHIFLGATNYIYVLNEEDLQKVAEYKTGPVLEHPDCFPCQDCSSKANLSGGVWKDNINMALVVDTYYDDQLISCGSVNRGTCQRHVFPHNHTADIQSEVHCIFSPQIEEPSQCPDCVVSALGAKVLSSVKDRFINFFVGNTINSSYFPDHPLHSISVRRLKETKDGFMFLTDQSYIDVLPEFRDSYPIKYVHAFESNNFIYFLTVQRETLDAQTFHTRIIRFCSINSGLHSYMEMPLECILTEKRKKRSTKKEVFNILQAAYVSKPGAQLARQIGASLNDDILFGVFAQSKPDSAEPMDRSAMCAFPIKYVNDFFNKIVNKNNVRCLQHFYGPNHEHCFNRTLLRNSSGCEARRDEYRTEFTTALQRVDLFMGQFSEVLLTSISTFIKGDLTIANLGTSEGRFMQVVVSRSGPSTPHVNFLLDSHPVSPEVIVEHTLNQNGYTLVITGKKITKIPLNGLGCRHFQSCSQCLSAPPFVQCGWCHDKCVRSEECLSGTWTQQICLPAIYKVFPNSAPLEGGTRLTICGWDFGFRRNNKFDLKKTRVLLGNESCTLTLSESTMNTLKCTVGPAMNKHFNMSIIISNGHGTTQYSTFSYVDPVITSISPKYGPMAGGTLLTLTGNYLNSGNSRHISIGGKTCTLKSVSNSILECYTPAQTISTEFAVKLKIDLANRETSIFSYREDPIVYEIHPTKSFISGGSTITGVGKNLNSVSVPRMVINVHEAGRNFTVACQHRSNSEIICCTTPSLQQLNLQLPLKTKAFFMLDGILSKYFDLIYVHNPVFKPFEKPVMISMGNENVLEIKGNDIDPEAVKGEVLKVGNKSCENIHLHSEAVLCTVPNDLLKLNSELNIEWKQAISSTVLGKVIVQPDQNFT
In words: SPR analysis, human Met ectodomain. The class given is binding. The method, then:
Binding constants of the STaMPtides and monomeric macrocyclic peptides to their corresponding receptor ectodomains were determined by SPR analysis using Biacore T200 (Cytiva). HBS-EP + buffer (Cytiva) containing 0.1% dimethyl sulfoxide (DMSO; Sigma-Aldrich, St. Louis, MO, USA) was used as the running buffer. As ligands, recombinant human Met ectodomain-Fc and human EPOR ectodomain-Fc were immobilized to around 1000 response units on CM5 sensor chips using a human antibody capture kit (Cytiva). STaMPtides and monomeric macrocyclic peptides were injected in five concentrations at a flow rate of 30 μL/min using a single-cycle kinetics method. Binding constants were quantified by analysis of the 1:1 binding model.

pKd: −log10 of the molar value. Where two headings read alike, the source gives them in different places.

As to “rhHGF: recombinant human HGF (R&D Systems)”, the branching morphology entry in test [1] was “showed branched tubular structures”. In addition, the “wound healing compared with no stimulation” value in test [2] is on record as 1.6 fold. The Closure rate was determined as 88.8457 μm/h in test [2] (replicate 1), 100.748 μm/h in test [2] (replicate 2), 98.5177 μm/h in test [2] (replicate 3) and 94.0632 μm/h in test [2] (replicate 4). Besides, the Wound closure in test [2] (replicate 1) stood at 533.074 μm; in test [2] (replicate 2), 604.487 μm; in test [2] (replicate 3), 591.106 μm; in test [2] (replicate 4), 564.379 μm.

“AET - CRQFNRRTHEVWNLDCG - AAPAAPA PAAPAAPA PAAPAA PG - CRQFNRRTHEVWNLDC (bicyclic or more) [aMD4dY-PA22, HGF mimetic STaMPtide, two aMD4dY macrocycles with a 22-amino-acid PA linker, secreted by C. glutamicum]”: the branching morphology result in test [1] was “showed branched tubular structures”. Besides, the “Met phosphorylation and Erk-SRE signaling activation” value in test [3] is reported as “at a comparable level with rhHGF”. The pKd in test [4] (Biacore T200, single-cycle kinetics, 1:1 binding model, N = 3, read-out: dissociation constant (KD)) was 9.00; in test [4] (Table S1, N 1, read-out: KD), 8.89; in test [4] (Table S1, N 2, read-out: KD) it was 9.05; in test [4] (Table S1, N 3, read-out: KD), 9.07. Further, the kd stood at 0.00046 M⁻¹ s⁻¹ in test [4] (Table S1, Average of N 1-3); 0.0006 M⁻¹ s⁻¹ in test [4] (Table S1, N 1); 0.00038 M⁻¹ s⁻¹ in test [4] (Table S1, N 2); 0.00039 M⁻¹ s⁻¹ in test [4] (Table S1, N 3). Besides, in test [2], the “wound healing compared with no stimulation” value is listed as 1.8 fold. The Closure rate in test [2] (replicate 1) was 104.419 μm/h; in test [2] (replicate 2), 110.38 μm/h; in test [2] (replicate 3) it was 95.5447 μm/h; in test [2] (replicate 4), 95.787 μm/h. Moreover, the Wound closure turned out to be 626.514 μm in test [2] (replicate 1), 662.279 μm in test [2] (replicate 2), 573.268 μm in test [2] (replicate 3) and 574.722 μm in test [2] (replicate 4).
